≈ marks a conversion by molar mass, not a printed value.
Details: not given

Row | SMILES | solubility [mM]
1 | NC(=O)c1cc(Cl)cc(Cl)c1N | 8.29 (≈ 1700 µg/mL)
2 | CC1=C(C(=O)O)N2C(=O)[C@@H](NC(=O)[C@H](N)C3=CCC=CC3)[C@H]2SC1 | 61 (≈ 21300 µg/mL)
3 | COc1cc(NS(=O)(=O)c2ccc(N)cc2)nc(C)n1 | 2.86 (≈ 843 µg/mL)
4 | CCOP(=S)(OCC)OCCSCC | 0.232 (≈ 60 µg/mL)
5 | O=C(OCC(O)CO)c1ccccc1Nc1ccnc2cc(Cl)ccc12 (stereo not given) | 107 (≈ 40000 µg/mL)
6 | Cc1cc(OC(=O)N(C)C)n(-c2ccccc2)n1 | 8.15 (≈ 2000 µg/mL)
7 | O=C(Nc1ccccc1)Nc1ccccc1 | 0.707 (≈ 150 µg/mL)
8 | CCOc1ccc2nc(S(N)(=O)=O)sc2c1 | 0.155 (≈ 40 µg/mL)
9 | CNC(=O)Oc1cccc(N=CN(C)C)c1 | 4.52 (≈ 1000 µg/mL)
10 | CC1=C2[C@H]3OC(=O)[C@@H](C)[C@@H]3CC[C@@]2(C)C=CC1=O | 0.812 (≈ 200 µg/mL)
11 | Cc1cc(C)c(C(=O)O)c(C)c1 | 4.4 (≈ 722 µg/mL)
12 | O=C(O)c1c(Cl)cccc1Cl | 74 (≈ 14100 µg/mL)

Same assay, conditions: 20 °C

Row | SMILES | solubility [mM]
13 | COC(=O)c1cccnc1 | 347 (≈ 47600 µg/mL)
14 | CCCCOC(=O)C(C)O (stereo not given) | 274 (≈ 40000 µg/mL)
15 | Nc1ccc(S(=O)(=O)O)cc1 | 62.4 (≈ 10800 µg/mL)
16 | CNCC(=O)O | 3370 (≈ 300000 µg/mL)
17 | CCC1CCCCC1 | 0.0561 (≈ 6.3 µg/mL)
18 | COP(=S)(OC)SCc1nc(N)nc(N)n1 | 0.853 (≈ 240 µg/mL)
19 | CNC(=O)N(C)c1nc2ccccc2s1 | 0.267 (≈ 59 µg/mL)
20 | Clc1ccc(Cl)c(-c2cc(Cl)c(Cl)c(Cl)c2Cl)c1 | 2.09e-05 (≈ 0.00755 µg/mL)
21 | Cc1nnc(-c2ccccc2)c(=O)n1N | 8.9 (≈ 1800 µg/mL)
22 | Clc1ccc(-c2ccccc2Cl)cc1Cl | 0.000516 (≈ 0.133 µg/mL)
23 | CCC(C)N (stereo not given) | 1530 (≈ 112000 µg/mL)
24 | c1ccc(C(c2ccccc2)(c2ccccc2)N2CCOCC2)cc1 | 6.07e-05 (≈ 0.02 µg/mL)
25 | OC[C@H]1O[C@@H](n2cnc3c(O)ncnc32)[C@H](O)[C@@H]1O | 58.9 (≈ 15800 µg/mL)
26 | CC(C)I | 8.24 (≈ 1400 µg/mL)
27 | Oc1cccc2ncccc12 | 2.87 (≈ 417 µg/mL)
28 | Clc1ccc(-c2cccc(Cl)c2Cl)c(Cl)c1 | 0.000208 (≈ 0.0608 µg/mL)
29 | NC[C@H](O)c1ccccc1 | 334 (≈ 45800 µg/mL)
30 | C[C@@H]1CN[C@@H](C)CN1 | 3060 (≈ 350000 µg/mL)
31 | Oc1ccc(/N=N/c2ccccc2)cc1 | 0.454 (≈ 90 µg/mL)
32 | O=C1NC(=O)C2C3C(C(O)(c4ccccc4)c4ccccn4)=CC(C3=C(c3ccccc3)c3ccccn3)C12 (stereo not given) | 0.117 (≈ 60 µg/mL)
33 | Clc1cc2c(cc1Cl)Oc1c(Cl)c(Cl)c(Cl)c(Cl)c1O2 | 1.13e-08 (≈ 4.4e-06 µg/mL)
34 | CC(=O)CCC1C(=O)N(c2ccccc2)N(c2ccccc2)C1=O | 0.54 (≈ 174 µg/mL)

Row | SMILES | solubility [mM]
35 | COC(=O)C(Cl)Cc1ccc(Cl)cc1 (stereo not given) | 0.172 (≈ 40 µg/mL)
36 | Clc1ccc(-c2c(Cl)cc(Cl)c(Cl)c2Cl)cc1Cl | 2.24e-05 (≈ 0.00807 µg/mL)
37 | CCSCc1ccccc1OC(=O)NC | 8.08 (≈ 1820 µg/mL)
38 | FC(F)(F)c1cccc(C(c2ccccc2)(c2ccccc2)n2cncn2)c1 | 3.95e-06 (≈ 0.0015 µg/mL)
39 | CCOC(=O)C(c1c(O)c2ccccc2oc1=O)c1c(O)c2ccccc2oc1=O | 0.375 (≈ 153 µg/mL)
40 | Oc1cccc2cccnc12 | 3.83 (≈ 556 µg/mL)
41 | Cc1ccccc1OCC(O)CO (stereo not given) | 64.8 (≈ 11800 µg/mL)
42 | Clc1ccc(Cl)c(-c2cccc(Cl)c2Cl)c1 | 0.000342 (≈ 0.1 µg/mL)
43 | CCc1ccccc1CC | 0.53 (≈ 71.1 µg/mL)
44 | CCOP(=S)(OCC)OP(=S)(OCC)OCC | 0.0931 (≈ 30 µg/mL)
45 | Clc1ccc(-c2ccc(Cl)c(Cl)c2Cl)cc1 | 0.000133 (≈ 0.0389 µg/mL)
46 | CCCCCCCCCCCCC(=O)O | 0.154 (≈ 33 µg/mL)
47 | O=[N+]([O-])c1c(O)ccc2ccccc12 | 1.06 (≈ 200 µg/mL)
48 | Clc1ccccc1-c1cccc(Cl)c1Cl | 0.00114 (≈ 0.293 µg/mL)
49 | Clc1cc(Cl)c(-c2c(Cl)cc(Cl)c(Cl)c2Cl)cc1Cl | 1.24e-05 (≈ 0.0049 µg/mL)
50 | O=Cc1ccc2c(c1)OCO2 | 23.3 (≈ 3500 µg/mL)
51 | CCCC1(CCC)C(=O)NC(=O)NC1=O | 2.83 (≈ 600 µg/mL)
52 | Nc1ccc2cc3ccc(N)cc3nc2c1 | 2390 (≈ 500000 µg/mL)
53 | CNC(=O)Nc1nc2ccccc2s1 | 0.0579 (≈ 12 µg/mL)
54 | CCCOC(=O)c1ccccc1C(=O)OCCC | 0.432 (≈ 108 µg/mL)
55 | c1cnc2ncncc2n1 | 1080 (≈ 143000 µg/mL)
56 | Clc1ccc(-c2c(Cl)cc(Cl)c(Cl)c2Cl)c(Cl)c1 | 3.37e-05 (≈ 0.0122 µg/mL)

Same assay, conditions: 21 °C

Row | SMILES | solubility [mM]
57 | Brc1cccc2ccccc12 | 0.045 (≈ 9.32 µg/mL)
58 | O=C(O)CCCCCCCCCCCCC(=O)O | 0.774 (≈ 200 µg/mL)

Same assay, conditions: 22 °C

Row | SMILES | solubility [mM]
59 | CCC1(c2ccccc2)C(=O)NCNC1=O | 2.29 (≈ 500 µg/mL)
60 | COC(=O)[C@@H]1C2CCC(C[C@@H]1OC(=O)c1ccccc1)N2C (stereo not given in full) | 5.93 (≈ 1800 µg/mL)
61 | CC(Oc1ccccc1Cl)C(=O)O (stereo not given) | 5.98 (≈ 1200 µg/mL)

Same assay, conditions: 23 °C

Row | SMILES | solubility [mM]
62 | C[C@]12CC[C@@H](O)C[C@@H]1CC[C@@H]1[C@@H]2[C@H](O)C[C@]2(C)C(=O)CC[C@@H]12 | 0.255 (≈ 78.2 µg/mL)
63 | C=C(C)C1CC=C(C)C(=O)C1 (stereo not given) | 8.67 (≈ 1300 µg/mL)
64 | O=C1C(Cl)=C(NC(=O)C(Cl)Cl)C(=O)c2ccccc21 | 0.00942 (≈ 3 µg/mL)
65 | COP(=O)(OC)OC1=C(Cl)C2C=CCC12 (stereo not given) | 9.97 (≈ 2500 µg/mL)

Same assay, conditions: 24 °C

Row | SMILES | solubility [mM]
66 | CC(C)Oc1cc(-n2nc(C(C)(C)C)oc2=O)c(Cl)cc1Cl | 0.00203 (≈ 0.7 µg/mL)
67 | CCN(CC)N=O | 1040 (≈ 106000 µg/mL)
68 | Nc1cccc2nc3ccccc3cc12 | 0.06 (≈ 11.7 µg/mL)
69 | CN(C)CCCN1c2ccccc2CCc2ccccc21 | 0.065 (≈ 18.2 µg/mL)

Same assay, conditions: 25 °C

Row | SMILES | solubility [mM]
70 | Cc1ccccc1S(N)(=O)=O | 9.46 (≈ 1620 µg/mL)
71 | Cc1ccnc(C)c1 | 3020 (≈ 324000 µg/mL)
72 | O=[N+]([O-])O[C@H]1CO[C@H]2[C@@H]1OC[C@H]2O[N+](=O)[O-] | 2.33 (≈ 550 µg/mL)
73 | CCC1(CC)C(=O)NC(=O)N(C)C1=O | 9.99 (≈ 1980 µg/mL)
74 | C#CC(C)(C)NC(=O)c1cc(Cl)cc(Cl)c1 | 0.0586 (≈ 15 µg/mL)
75 | Cc1nc(N(C)C)nc(OC(=O)N(C)C)c1C | 11.3 (≈ 2700 µg/mL)
76 | CCC(O)(CC)CC | 145 (≈ 16800 µg/mL)
77 | CCCCCCC(=O)O | 21.6 (≈ 2820 µg/mL)
78 | C1=CC=CCC=C1 | 6.73 (≈ 620 µg/mL)
79 | CCC1NC(=O)c2cc(S(N)(=O)=O)c(Cl)cc2N1 (stereo not given) | 0.518 (≈ 150 µg/mL)
80 | O=C(O)c1cc(O)c(O)c(OC(=O)c2cc(O)c(O)c(O)c2)c1 | 1.55 (≈ 500 µg/mL)

Reference: the OPERA property sets (Mansouri et al. 2018)
